The values that follow come from patent US9938262B2, “Benzamides” (Merck Patent GmbH, priority 2011, dated 2018).

By EC50 is commonly meant the concentration at which the effect is half-maximal.

The target in one experiment is T1, FSHR (Homo sapiens, UniProt P23945).
T1 construct: expressed in transfected cells; host or cells: CHO (Cho-FSHR-LUC-1-1-43)
T1 sequence (P23945 18-695): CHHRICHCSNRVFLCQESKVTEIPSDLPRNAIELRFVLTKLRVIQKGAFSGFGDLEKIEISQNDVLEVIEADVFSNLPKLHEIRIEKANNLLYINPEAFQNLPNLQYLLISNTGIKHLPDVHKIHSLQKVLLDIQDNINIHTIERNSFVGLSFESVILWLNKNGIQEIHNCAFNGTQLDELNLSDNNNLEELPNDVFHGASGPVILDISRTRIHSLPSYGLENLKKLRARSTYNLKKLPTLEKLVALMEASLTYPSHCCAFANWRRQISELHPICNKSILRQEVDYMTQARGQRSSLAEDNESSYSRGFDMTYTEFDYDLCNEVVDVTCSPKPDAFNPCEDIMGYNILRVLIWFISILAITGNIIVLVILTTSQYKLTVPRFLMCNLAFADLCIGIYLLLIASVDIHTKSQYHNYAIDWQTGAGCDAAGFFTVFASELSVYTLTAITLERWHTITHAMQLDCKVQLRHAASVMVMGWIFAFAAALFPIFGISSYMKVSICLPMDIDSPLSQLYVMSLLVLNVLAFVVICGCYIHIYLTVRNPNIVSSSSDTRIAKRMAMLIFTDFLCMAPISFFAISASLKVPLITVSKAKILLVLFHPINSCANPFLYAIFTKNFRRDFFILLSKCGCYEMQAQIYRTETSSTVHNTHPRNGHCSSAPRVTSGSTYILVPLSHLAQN
T1 sequence (P01215 25-116 partner): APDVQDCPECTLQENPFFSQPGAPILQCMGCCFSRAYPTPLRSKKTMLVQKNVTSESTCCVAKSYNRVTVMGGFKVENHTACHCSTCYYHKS
T1 sequence (P01225 19-129 partner): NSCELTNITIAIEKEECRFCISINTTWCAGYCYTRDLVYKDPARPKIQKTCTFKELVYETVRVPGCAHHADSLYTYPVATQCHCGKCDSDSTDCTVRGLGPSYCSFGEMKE
Put plainly: EC50 of cyclic AMP production in CHO FSHR cells + EC20 FSH (Assay A). The class given is cell-based. The following applies: 1 h; 5 μM; effect relative to maximum response of the FSH standard; Table 2. The essentials:
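cAMP HTRF ratio (665/620 nm) read after 1 h, 37 °C exposure of CHO-FSHR cells to compound in presence of EC20 FSH ([…]) and IBMX 200 μM. Responses given relative to FSH standard maximum; EC50 derived.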
As for `O=C(NCCCN1CCCC1=O)c1ccc(N2CCN(c3ncncn3)CC2)c(NC(=O)c2coc(C3CC3)n2)c1` [Compound 554], the activation at 5 µM came out at 40%.

The experiment is the same for the next values; noted with them: CHO FSHR cells + EC20 FSH; Table 2; read-out: Assay A EC50 of cyclic AMP production.
With `O=C(NCCCN1CCCC1=O)c1ccc(N2CCN(c3cccc4[nH]ccc34)CC2)c(NC(=O)c2coc(C3CC3)n2)c1` [Compound 553], the EC50 lay within 100 to 1000 nM.
For `O=C(NCCCN1CCCC1=O)c1ccc(N2CCN(c3cccnc3)CC2)c(NC(=O)c2coc(C3CC3)n2)c1` [Compound 555], the EC50 was in the range of 1000 to 10000 nM.
As to `Cc1ccccc1N1CCN(c2ccc(C(=O)NC[C@H](O)[C@@H](O)CN)cc2NC(=O)c2coc(C3CC3)n2)CC1` [Compound 561], the EC50 fell in the range of 1000 to 10000 nM.
Regarding `COC(C(=O)Nc1cc(C(=O)NCCCN2CCCC2=O)ccc1N1CCN(c2ccccc2C)CC1)c1ccccc1` (stereo not shown) [Compound 562], the EC50 lay in the range of 100 to 1000 nM.
Consider `Cc1ccccc1N1CCN(c2ccc(C(=O)NCc3cccc(CN(C)C)c3)cc2NS(C)(=O)=O)CC1` [Compound 563], for which the EC50 was above 10000 nM.
Consider `Cc1ccccc1N1CCN(c2ccc(C(=O)NCc3ccc(F)c(CN(C)C)c3)cc2NC(=O)c2coc(C3CC3)n2)CC1` [Compound 564], for which the EC50 lay within 100 to 1000 nM.
Same read-out and setting: as for `Cc1ccccc1N1CCN(c2ccc(C(=O)NC[C@H](O)CO)cc2NC(=O)c2coc(C3CC3)n2)CC1` [Compound 565], the figure is 100 to 1000 nM; as for `Cc1ccccc1N1CCN(c2ccc(C(=O)NC[C@H](O)c3ccccc3)cc2NC(=O)c2coc(C3CC3)n2)CC1` [Compound 566], 100 to 1000 nM; as for `Cc1ccccc1N1CCN(c2ccc(C(=O)NC[C@@H](O)CO)cc2NC(=O)c2coc(C3CC3)n2)CC1` [Compound 567], 100 to 1000 nM.
As to `Cc1ccccc1N1CCN(c2ccc(C(=O)NC[C@@H](N)c3ccccc3)cc2NC(=O)c2coc(C3CC3)n2)CC1` [Compound 568], the EC50 is 100 to 1000 nM.
Turning to `Cc1ccc2[nH]cc(CCNC(=O)c3ccc(N4CCN(c5ccccc5C)CC4)c(NC(=O)c4coc(C5CC5)n4)c3)c2c1` [Compound 569], the EC50 was in the range of 1000 to 10000 nM.
On to `Cc1ccccc1N1CCN(c2ccc(C(=O)NCCCc3cccc(O)c3)cc2NC(=O)c2coc(C3CC3)n2)CC1` [Compound 570], for which the EC50 lay within 100 to 1000 nM.
Same read-out and setting: to `Cc1ccccc1N1CCN(c2ccc(C(=O)N3CCC4(CC3)COC4)cc2NC(=O)c2coc(C3CC3)n2)CC1` [Compound 571] belongs 100 to 1000 nM.
Same read-out and setting: as for `Cc1ccccc1N1CCN(c2ccc(C(=O)NCCCN3CCCC3=O)cc2NCc2ccco2)CC1` [Compound 572], the figure is below 100 nM.
As to `Cc1ccc(CNc2cc(C(=O)NCc3cccc(CN(C)C)c3)ccc2N2CCN(c3ccccc3C)CC2)o1` [Compound 573], the EC50 is 1000 to 10000 nM.
For `Cc1ccccc1N1CCN(c2ccc(C(=O)NCc3cccc(CO)c3)cc2NC(=O)c2coc(C3CC3)n2)CC1` [Compound 574], the EC50 was in the range of 100 to 1000 nM.
Take `Cc1ccccc1N1CCN(c2ccc(C(=O)N[C@H]3CCC[C@@H](O)C3)cc2NC(=O)c2coc(C3CC3)n2)CC1` [Compound 575]: the EC50 is below 100 nM.
Consider `Cc1ccccc1N1CCN(c2ccc(C(=O)N[C@H]3CCC[C@H](O)C3)cc2NC(=O)c2coc(C3CC3)n2)CC1` [Compound 576], for which the EC50 is below 100 nM.
Turning to `Cc1ccccc1N1CCN(c2ccc(C(=O)N[C@H]3CCC[C@H](O)[C@@H]3O)cc2NC(=O)c2coc(C3CC3)n2)CC1` [Compound 578], the EC50 was below 100 nM.
Still for that read-out and setting: to `CCOc1cc(CCCNC(=O)c2ccc(N3CCN(c4ccccc4C)CC3)c(NC(=O)c3ccco3)c2)ccc1OC` [Compound 579] belongs 100 to 1000 nM.
For `CCOc1cc(CCCNC(=O)c2ccc(N3CCN(c4ccccc4C)CC3)c(NC(=O)c3coc(C4CC4)n3)c2)ccc1OC` [Compound 580], the EC50 is 100 to 1000 nM.
On to `CCOc1cc(CCCNC(=O)c2ccc(N3CCN(c4ccccc4C)CC3)c(NC(=O)c3ccc(C)o3)c2)ccc1OC` [Compound 581], for which the EC50 was 100 to 1000 nM.
With `Cc1ccccc1N1CCN(c2ccc(C(=O)NC[C@@H](O)c3ccccc3)cc2NC(=O)c2ccco2)CC1` [Compound 582], the EC50 fell in the range of 100 to 1000 nM.
Regarding `Cc1ccc(C(=O)Nc2cc(C(=O)NC[C@@H](O)c3ccccc3)ccc2N2CCN(c3ccccc3C)CC2)o1` [Compound 583], the EC50 lay in the range of 1000 to 10000 nM.
On the same count and under the same terms, to `Cc1ccc(C(=O)Nc2cc(C(=O)NC[C@H](O)c3ccccc3)ccc2N2CCN(c3ccccc3C)CC2)o1` [Compound 584] belongs 1000 to 10000 nM; to `Cc1ccccc1N1CCN(c2ccc(C(=O)NC[C@H](O)c3ccccc3)cc2NC(=O)c2ccco2)CC1` [Compound 585], below 100 nM; to `Cc1ccccc1N1CCN(c2ccc(C(=O)N3CCC4(COC4)C3)cc2NC(=O)c2ccco2)CC1` [Compound 587], 1000 to 10000 nM.
As to `Cc1ccc(C(=O)Nc2cc(C(=O)NCCCc3cccc(O)c3)ccc2N2CCN(c3ccccc3C)CC2)o1` [Compound 588], the EC50 was in the range of 100 to 1000 nM.
`Cc1ccccc1N1CCN(c2ccc(C(=O)NCCCc3cccc(O)c3)cc2NC(=O)c2ccco2)CC1` [Compound 589]: the EC50 is 100 to 1000 nM.
On the same count and under the same terms, as for `Cc1ccccc1N1CCN(c2ccc(C(=O)N3CC4(COC4)C3)cc2NC(=O)c2coc(C3CC3)n2)CC1` [Compound 590], the figure is 100 to 1000 nM; as for `Cc1ccc(C(=O)Nc2cc(C(=O)N3CC4(COC4)C3)ccc2N2CCN(c3ccccc3C)CC2)o1` [Compound 591], above 10000 nM; as for `Cc1ccccc1N1CCN(c2ccc(C(=O)N3CC4(COC4)C3)cc2NC(=O)c2ccco2)CC1` [Compound 592], 1000 to 10000 nM.
On to `Cc1ccc(C(=O)Nc2cc(C(=O)N3CCC4(COC4)C3)ccc2N2CCN(c3ccccc3C)CC2)o1` [Compound 593], for which the EC50 fell in the range of 1000 to 10000 nM.
As to `Cc1ccccc1N1CCN(c2ccc(C(=O)N3CCC4(COC4)C3)cc2NC(=O)c2coc(C3CC3)n2)CC1` [Compound 594], the EC50 lay within 1000 to 10000 nM.
In the case of `N#Cc1nccnc1N1CCN(c2ccc(C(=O)NCCCN3CCCC3=O)cc2NC(=O)c2coc(C3CC3)n2)CC1` [Compound 595], the EC50 was 1000 to 10000 nM.
For the compound `O=C(NCCCN1CCCC1=O)c1ccc(N2CCN(c3cccnn3)CC2)c(NC(=O)c2coc(C3CC3)n2)c1` [Compound 596], the EC50 was in the range of 1000 to 10000 nM.
Same read-out and setting: to `Cc1cc(N2CCN(c3ccc(C(=O)NCCCN4CCCC4=O)cc3NC(=O)c3coc(C4CC4)n3)CC2)ncn1` [Compound 597] belongs above 10000 nM; to `Cc1nnc(N2CCN(c3ccc(C(=O)NCCCN4CCCC4=O)cc3NC(=O)c3coc(C4CC4)n3)CC2)s1` [Compound 598], 1000 to 10000 nM.
As for `COc1cncc(N2CCN(c3ccc(C(=O)NCCCN4CCCC4=O)cc3NC(=O)c3coc(C4CC4)n3)CC2)c1` [Compound 599], the concentration giving a half-maximal response (EC50) is above 10000 nM.
Still for that read-out and setting: to `CN(C)c1ccc(N2CCN(c3ccc(C(=O)NCCCN4CCCC4=O)cc3NC(=O)c3coc(C4CC4)n3)CC2)nn1` [Compound 602] belongs 100 to 1000 nM; to `Cc1ccccc1N1CCN(c2ccc(C(=O)NCCCN3CCCC3=O)cc2NC(=O)c2coc(C3CC3)n2)CC1=O` [Compound 605], 1000 to 10000 nM; to `Cc1ccccc1N1CCN(c2ccc(C(=O)NCCNC3CS(=O)(=O)C[C@H]3O)cc2NC(=O)c2ccco2)CC1` (stereo partly shown) [Compound 606], 100 to 1000 nM.
With `Cc1ccccc1N1CCN(c2ccc(C(=O)NCCNC3CS(=O)(=O)C[C@@H]3O)cc2NC(=O)c2ccco2)CC1` (stereo partly shown) [Compound 607], the EC50 is 100 to 1000 nM.
Same read-out and setting: to `Cc1ccccc1N1CCN(c2ccc(C(=O)NCCCN3CCC[C@@H]3C(N)=O)cc2NC(=O)c2ccco2)CC1` [Compound 608] belongs 100 to 1000 nM.
In the case of `Cc1ccccc1N1CCN(c2ccc(C(=O)NCCCN3CCC[C@H]3C(N)=O)cc2NC(=O)c2ccco2)CC1` [Compound 609], the EC50 was 100 to 1000 nM.

The target of the next experiment is T2, follicle-stimulating hormone (FSH) receptor (Rattus norvegicus, UniProt P20395).
T2 construct: endogenous in cells; host or cells: rat granulosa cells
T2 sequence (P20395 18-692): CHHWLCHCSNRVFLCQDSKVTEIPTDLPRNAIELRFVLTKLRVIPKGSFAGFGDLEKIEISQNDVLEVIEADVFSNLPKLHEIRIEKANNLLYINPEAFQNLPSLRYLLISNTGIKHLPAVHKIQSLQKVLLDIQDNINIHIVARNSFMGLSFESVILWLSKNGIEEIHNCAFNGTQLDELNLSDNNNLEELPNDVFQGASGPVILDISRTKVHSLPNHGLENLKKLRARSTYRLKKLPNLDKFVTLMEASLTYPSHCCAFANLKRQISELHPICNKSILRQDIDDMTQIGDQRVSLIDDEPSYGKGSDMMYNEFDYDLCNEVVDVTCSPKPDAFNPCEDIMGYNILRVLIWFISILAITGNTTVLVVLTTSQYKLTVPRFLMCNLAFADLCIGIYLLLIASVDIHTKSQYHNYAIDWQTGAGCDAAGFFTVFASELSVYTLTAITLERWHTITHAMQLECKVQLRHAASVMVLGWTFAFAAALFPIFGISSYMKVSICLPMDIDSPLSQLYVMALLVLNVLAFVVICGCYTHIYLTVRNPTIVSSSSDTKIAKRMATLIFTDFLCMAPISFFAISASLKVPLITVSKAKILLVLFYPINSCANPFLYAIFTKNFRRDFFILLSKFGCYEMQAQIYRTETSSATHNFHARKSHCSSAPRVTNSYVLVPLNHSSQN
Put plainly: Rat granulosa EC50 FSH (Assay B). To be noted: rat granulosa cells; Table 1. The format is cell-based. Here is the method: Example 11: Rat Granulosa EC50 FSH (Assay B)
The assay was performed pursuant to the teaching of Yanofsky et al. (2006) Allosteric activation of the follicle-stimulating hormone (FSH) receptor by selective, nonpeptide agonists. JBC 281(19): 13226-13233, which is incorporated by reference in the disclosure of the invention.
Consider `Cc1ccccc1N1CCN(c2ccc(C(=O)NCCCN3CCCC3=O)cc2NC(=O)c2occc2C)CC1` [Compound 5], for which the EC50 lay in the range of 1000 to 10000 nM.
Compound `Cc1ccc(C(=O)Nc2cc(C(=O)NCCCN3CCCC3=O)ccc2N2CCN(c3ccccc3C)CC2)o1` [Compound 6] yielded an EC50 of 100 to 1000 nM.
The same measure, in the same setting: to `Cc1ccccc1N1CCN(c2ccc(C(=O)NCCCN3CCCC3=O)cc2NC(=O)c2ccccc2)CC1` [Compound 27] belongs 1000 to 10000 nM.
The compound `Cc1ccccc1N1CCN(c2ccc(C(=O)NCCCN3CCCC3=O)cc2NC(=O)c2ccccn2)CC1` [Compound 36] had an EC50 of 100 to 1000 nM.
The compound `Cc1nc(C(=O)Nc2cc(C(=O)NCCCN3CCCC3=O)ccc2N2CCN(c3ccccc3C)CC2)co1` [Compound 75] came in with an EC50 above 10000 nM.
In turn, `Cc1ccccc1N1CCN(c2ccc(C(=O)NCCCN3CCCC3=O)cc2NC(=O)C2CC2)CC1` [Compound 84] registered an EC50 of 100 to 1000 nM.
